Columns and labels:
Type in all cases: in vivo, mouse
[1] = test system: G1H-G93A transgenic mice; experiment: Exercise tolerance test: rotarod test; details: for Rotarod test score: 5 mg/kg oral daily from 80th day (before onset), score 0-3
Experimental: (§1) The following five kinds of exercise tolerance tests were conducted every fifth day from the 70th day after birth to evaluate the ability to exercise in the respective exercise tolerance tests. That is, the days for the exercise tolerance tests were every fifth days, such as the 70th day, 75th day, 80th day, 85th day and so on, after birth. The exercise tolerance tests were conducted throughout the survival period, and the post-mortem evaluation was based on the definitions of the following five kinds of exercise tolerance tests.
The apparatus used in the Rotarod test (Rota Rod Treadmill type 7600, Ugo Basile Co., Milano, Italy) is a rotating axle having a diameter of 3.6 cm, and this rotating axle is set up so as to have 16 revolution per minute (one rotation: 3.75 seconds). The period for which a mouse can remain on a rotating axle without falling is measured. The evaluation of the rotarod test for the mouse was performed based on the following criteria: Score 0=The time exceeds 60 seconds; Score 1=The time is more than 30 seconds and 60 seconds or less; Score 2=The time is more than 4 seconds and 30 seconds or less; and Score 3=The time is 4 seconds or less. The post-mortem evaluation of the rotarod test is defined as score 3.

[2] = test system: G1H-G93A transgenic mice; experiment: Exercise tolerance test: beam balance test; details: 5 mg/kg oral daily from 80th day (before onset), score 0-2
Experimental: as §1
The apparatus used in the beam balance test is constructed by maintaining a wooden beam having a diameter of 1.5 cm horizontally, and installing platforms which serve as footholds, on the respective sides in a distance of 30 cm. A mouse is placed on the platform on one side, and the time taken by the mouse to cross over the beam which is 30 cm in length and to arrive at the platform on the opposite side is measured. The evaluation of the beam balance test for the mouse was performed based on the following criteria: Score 0=The time is 10 seconds or less; Score 1=The time is more than 10 seconds to 15 seconds; and Score 2=The time is more than 15 seconds, or the mouse falls down. The post-mortem evaluation of the beam balance test is defined as score 2.

[3] = test system: G1H-G93A transgenic mice; experiment: Exercise tolerance test: footprint test; details: 5 mg/kg oral daily from 80th day (before onset), score 0-4
Experimental: as §1
Both hindlimbs of a mouse are dipped in a black ink bottle, and then the mouse is allowed to walk on white paper. The footprints of the two hindlimbs of the mouse after the walking are analyzed. […] The post-mortem evaluation of the footprint test is defined as score 4.

[4] = test system: G1H-G93A transgenic mice; experiment: Exercise tolerance test: inclined plane test; details: for Inclined plane test score: 5 mg/kg oral daily from 80th day (before onset), score 0-3, 5 mg/kg
Experimental: as §1
The apparatus used in the inclined plane test is an apparatus allowing a wooden board to be fixed at the respective angles of 45°, 65° and 80° from a horizontal plane. A mouse is placed in the posture of head-up position on the wooden board inclined at each angle and the mouse is allowed to maintain this position for 5 seconds without falling downward. In the evaluation method of the inclined plane test for each mouse, the number of seconds (TA seconds: 5 seconds or less) during which the position could be maintained without falling downward is measured at each of the angles (A) of 45°, 65° and 80°, and then the total sum value of the products of the angle (A) and the number of seconds (TA) during which the position could be maintained: Σ [Angle(A)×Time (TA)] is calculated. Since a normal mouse is capable of maintaining the position on the wooden board inclined to the respective angles for 5 seconds, the sum value of Σ [Angle(A)×Time (TA)] will be 80×5+65×5+45×5=950. The evaluation of the inclined plane test for the mouse was performed based on the following criteria: Score 0=950; Score 1=over 550 to less than 950; Score 2=over 225 to 550; and Score 3=225 and below. The post-mortem evaluation of the inclined plane test is defined as score 3.

[5] = from the 125th day to 140th day after birth

## N#Cc1cc(-c2n[nH]c(-c3ccncc3)n2)ccn1 [compound (b), 4-(5-pyridin-4-yl-1H-[1,2,4]triazol-3-yl)pyridine-2-carbonitrile]
[1]; 70th day after birth, 5 mg/kg
  Rotarod test score: 0.0±0.0
[1]; 75th day after birth, 5 mg/kg
  Rotarod test score: 0.0±0.0
[1]; 80th day after birth, 5 mg/kg
  Rotarod test score: 0.0±0.0
[1]; 85th day after birth, 5 mg/kg
  Rotarod test score: 0.0±0.0
[1]; 90th day after birth, 5 mg/kg
  Rotarod test score: 0.0±0.0
[1]; 95th day after birth, 5 mg/kg
  Rotarod test score: 0.0±0.0
[1]; 100th day after birth, 5 mg/kg
  Rotarod test score: 0.0±0.0
[1]; 105th day after birth, 5 mg/kg
  Rotarod test score: 0.0±0.0
[1]; 105th, 110th and 115th day, 5 mg/kg oral daily from 80th day after birth, Mann-Whitney's U test
  effect in rotarod test as compared to placebo group: significant effects
[1]; 110th day after birth, 5 mg/kg
  Rotarod test score: 0.5±0.7
[1]; 115th day after birth, 5 mg/kg
  Rotarod test score: 1.3±1.1
[1]; 120th day after birth, 5 mg/kg
  Rotarod test score: 2.5±0.5
[1]; 125th day after birth
  Rotarod test score: 3.0 ± 0.0
[1]; 130th day after birth
  Rotarod test score: 3.0 ± 0.0
[1]; 135th day after birth
  Rotarod test score: 3.0 ± 0.0
[1]; 140th day after birth
  Rotarod test score: 3.0 ± 0.0
[1]; [5]
  Rotarod test score: 3.0±0.0
[2]; 70th day after birth, 5 mg/kg
  Beam balance test score: 0.0±0.0
[2]; 75th day after birth, 5 mg/kg
  Beam balance test score: 0.0±0.0
[2]; 80th day after birth, 5 mg/kg
  Beam balance test score: 0.0±0.0
[2]; 85th day after birth, 5 mg/kg
  Beam balance test score: 0.0±0.0
[2]; 90th day after birth, 5 mg/kg
  Beam balance test score: 0.0±0.0
[2]; 95th day after birth, 5 mg/kg
  Beam balance test score: 0.0±0.0
[2]; 100th day after birth, 5 mg/kg
  Beam balance test score: 0.0±0.0
[2]; 105th day after birth, 5 mg/kg
  Beam balance test score: 0.0±0.0
[2]; 110th day after birth, 5 mg/kg
  Beam balance test score: 0.1±0.3
[2]; 115th day after birth, 5 mg/kg
  Beam balance test score: 0.6±0.7
[2]; 120th day after birth, 5 mg/kg
  Beam balance test score: 1.5±0.5
[2]; 125th day after birth
  Beam balance test score: 2.0 ± 0.0
[2]; 130th day after birth
  Beam balance test score: 2.0 ± 0.0
[2]; 135th day after birth
  Beam balance test score: 2.0 ± 0.0
[2]; 140th day after birth
  Beam balance test score: 2.0 ± 0.0
[2]; [5]
  Beam balance test score: 2.0±0.0
[3]; 70th day after birth
  Footprint test score: 0.0±0.0
[3]; 75th day after birth
  Footprint test score: 0.0±0.0
[3]; 80th day after birth
  Footprint test score: 0.0±0.0
[3]; 85th day after birth
  Footprint test score: 0.0±0.0
[3]; 90th day after birth
  Footprint test score: 0.0±0.0
[3]; 95th day after birth
  Footprint test score: 0.0±0.0
[3]; 100th day after birth
  Footprint test score: 0.0±0.0
[3]; 105th day after birth
  Footprint test score: 0.0±0.0
[3]; 110th day after birth
  Footprint test score: 0.1±0.3
[3]; 115th day after birth
  Footprint test score: 0.6±0.7
[3]; 120th day after birth
  Footprint test score: 1.8±1.0
[3]; 125th day after birth
  Footprint test score: 2.8±0.4
[3]; 130th day after birth
  Footprint test score: 3.4±0.5
[3]; 135th day after birth
  Footprint test score: 3.9±0.3
[3]; 140th day after birth
  Footprint test score: 4.0±0.0
[4]; 70th day after birth
  Inclined plane test score: 0.0±0.0
[4]; 75th day after birth
  Inclined plane test score: 0.0±0.0
[4]; 80th day after birth
  Inclined plane test score: 0.0±0.0
[4]; 85th day after birth
  Inclined plane test score: 0.0±0.0
[4]; 90th day after birth
  Inclined plane test score: 0.0±0.0
[4]; 95th day after birth
  Inclined plane test score: 0.0±0.0
[4]; 100th day after birth
  Inclined plane test score: 0.0±0.0
[4]; 105th day after birth
  Inclined plane test score: 0.0±0.0
[4]; 110th day after birth
  Inclined plane test score: 0.0±0.0
[4]; 110th, 115th, 120th, 125th and 130th day, 5 mg/kg oral daily from 80th day after birth, Mann-Whitney's U test
  effect in inclined plane test as compared to placebo group: significant effects
[4]; 115th day after birth
  Inclined plane test score: 0.1±0.3
[4]; 120th day after birth
  Inclined plane test score: 0.6±0.7
[4]; 125th day after birth
  Inclined plane test score: 1.4±0.7
[4]; 130th day after birth
  Inclined plane test score: 2.3±0.7
[4]; 135th day after birth
  Inclined plane test score: 2.9±0.3
[4]; 140th day after birth
  Inclined plane test score: 3.0±0.0
